# Laboratory results reported in US8501746B2, “Organic compounds” (Xenon Pharmaceuticals Inc., priority 2006, dated 2013).
row,Compound,melting point
1,"Cc1nc(-n2ccc(O)cc2=O)sc1C(=O)NCc1cccc(F)c1 [Example 1.15, N-(3-Fluorobenzyl)-2-(4-hydroxy-2-oxopyridin-1(2H)-yl)-4-methylthiazole-5-carboxamide]",250 to 252 °C
2,"Cc1nc(-n2ccccc2=O)sc1C(=O)NCc1ccccc1 [Example 3.10, N-Benzyl-4-methyl-2-(2-oxopyridin-1(2H)-yl)thiazole-5-carboxamide]",180 to 182 °C
3,"CCNC(=O)c1sc(-n2ccc(OCc3ccccc3)cc2=O)cc1C [Example 3.23, 5-(4-(Benzyloxy)-2-oxopyridin-1(2H)-yl)-N-ethyl-3-methylthiophene-2-carboxamide]",158 to 160 °C
4,"Cc1nc(-n2ccc(CCc3ccccc3)cc2=O)sc1C(=O)NCc1ccccc1 [Example 19, N-benzyl-4-methyl-2-(2-oxo-4-phenethylpyridine-1(2H)-yl)thiazole-5-carboxamide]",149 to 150 °C
5,"Cc1nc(-n2ccc(C(F)(F)F)cc2=O)sc1C(=O)NCc1cccnc1 [Example 3.24, 4-Methyl-2-(2-oxo-4-(trifluoromethyl)pyridin-1(2H)-yl)-N-(pyridin-3-ylmethyl)thiazole-5-carboxamide]",172 to 173 °C
6,"Cc1nc(-n2ccc(O)cc2=O)sc1C(=O)NCc1cccnc1 [Example 7.10, 2-(4-Hydroxy-2-oxopyridin-1(2H)-yl)-4-methyl-N-(pyridin-3-ylmethyl)thiazole-5-carboxamide]",238 to 240 °C
7,"Cc1nc(-n2cc(OCc3ccccc3)ccc2=O)sc1C(=O)NCc1ccccc1 [Example 3.2, N-Benzyl-2-(5-(benzyloxy)-2-oxopyridin-1(2H)-yl)-4-methylthiazole-5-carboxamide]",166 to 167 °C
8,CCOC(=O)c1sc(-n2ccc(OCc3ccc(C(F)(F)F)o3)cc2=O)nc1C [Example 17],196 to 198 °C
9,"Cc1cc(-n2ccc(O)cc2=O)sc1C(=O)NCc1ccccc1 [Example 7.4, N-Benzyl-5-(4-hydroxy-2-oxopyridin-1(2H)-yl)-3-methylthiophene-2-carboxamide]",98 °C (dec.)
10,"CCOC(=O)c1sc(-n2ccc(OC)cc2=O)nc1C [Example 15.1, Ethyl 2-(4-Methoxy-2-oxopyridin-1(2H)-yl)-4-methylthiazole-5-carboxylate]",163 to 165 °C
11,"Cc1cc(-n2ccc(OCc3ccc(F)cc3)cc2=O)sc1C(=O)NCc1ccccc1 [Example 9.2, N-Benzyl-5-(4-(4-fluorobenzyloxy)-2-oxopyridin-1(2H)-yl)-3-methylthiophene-2-carboxamide]",195 to 197 °C
12,"Cc1nc(-n2ccc(OCc3ccccc3)cc2=O)[nH]c1C(=O)NCc1cccnc1 [Example 1.8, 2-(4-(Benzyloxy)-2-oxopyridin-1(2H)-yl)-4-methyl-N-(pyridin-3-ylmethyl)-1H-imidazole-5-carboxamide]",203 to 204 °C
13,"Cc1cc(-n2ccc(OCc3ccccc3)cc2=O)sc1C(=O)NCc1cccnc1 [Example 1.23, 5-(4-(Benzyloxy)-2-oxopyridin-1(2H)-yl)-3-methyl-N-(pyridin-3-ylmethyl)thiophene-2-carboxamide]",165 to 167 °C
14,"Cc1nc(-n2ccc(OCc3ccc(F)cc3)cc2=O)sc1C(=O)NCc1ccccc1 [Example 1.24, N-Benzyl-2-(4-(4-fluorobenzyloxy)-2-oxopyridin-1(2H)-yl)-4-methylthiazole-5-carboxamide]",243 to 245 °C
15,"Cc1nc(-n2ccc(O)cc2=O)sc1C(=O)NCCC1CC1 [Example 1.17, N-(2-Cyclopropylethyl)-2-(4-hydroxy-2-oxopyridin-1(2H)-yl)-4-methylthiazole-5-carboxamide]",234 to 236 °C
16,"Cc1nc(-n2cccc(OCc3ccccc3)c2=O)sc1C(=O)NCc1ccccc1 [Example 3.7, N-Benzyl-2-(3-(benzyloxy)-2-oxopyridin-1(2H)-yl)-4-methylthiazole-5-carboxamide]",198 to 201 °C
17,"Cc1cc(-n2ccc(OCc3ccccc3)cc2=O)sc1C(=O)NCc1ccc(F)cc1 [Example 3.21, 5-(4-(Benzyloxy)-2-oxopyridin-1(2H)-yl)-N-(4-fluorobenzyl)-3-methylthiophene-2-carboxamide]",175 to 177 °C
18,"Cc1nc(-n2cc(C(=O)Nc3ccccc3)ccc2=O)sc1C(=O)NCc1ccccc1 [Example 3.15, N-Benzyl-4-methyl-2-(2-oxo-5-(phenylcarbamoyl)pyridin-1(2H)-yl)thiazole-5-carboxamide]",223 to 225 °C
19,"Cc1nc(-n2ccc(OCc3ccc(F)cc3)cc2=O)sc1C(=O)NCc1cccnc1 [Example 1.13, 2-(4-(4-Fluorobenzyloxy)-2-oxopyridin-1(2H)-yl)-4-methyl-N-(pyridin-3-ylmethyl)thiazole-5-carboxamide]",231 to 233 °C
20,"Cc1nc(-n2ccc(OCc3ccc(C(F)(F)F)o3)cc2=O)sc1C(=O)NCc1cccnc1 [Example 1.12, 4-Methyl-2-(2-oxo-4-((5-(trifluoromethyl)furan-2-yl)methoxy)pyridin-1(2H)-yl)-N-(pyridin-3-ylmethyl)thiazole-5-carboxamide]",240 to 242 °C

row,Compound,melting point
1,"Cc1nc(-n2ccc(OCc3ccc(OC(F)F)cc3)cc2=O)sc1C(=O)NCc1ccc(F)cc1 [Example 9.9, 2-(4-(4-(Difluoromethoxy)benzyloxy)-2-oxopyridin-1(2H)-yl)-N-(4-fluorobenzyl)-4-methylthiazole-5-carboxamide]",242 to 244 °C
2,"O=C(NCc1ccccc1)c1csc(-n2ccc(O)cc2=O)c1 [Example 7.3, N-Benzyl-5-(4-hydroxy-2-oxopyridin-1(2H)-yl)thiophene-3-carboxamide]",150 °C (dec.)
3,"CCOC(=O)c1sc(-n2ccc(OCC3CC3)cc2=O)nc1C [Example 15, Ethyl 2-(4-(Cyclopropylmethoxy)-2-oxopyridin-1(2H)-yl)-4-methylthiazole-5-carboxylate]",180 to 183 °C
4,"Cc1cc(-n2ccc(OCC3CC3)cc2=O)sc1C(=O)NCc1ccccc1 [Example 9.5, N-Benzyl-5-(4-(cyclopropylmethoxy)-2-oxopyridin-1(2H)-yl)-3-methylthiophene-2-carboxamide]",175 to 177 °C
5,"Cc1nc(-n2ccc(OCc3ccccn3)cc2=O)sc1C(=O)NCc1ccccc1 [Example 6.1, N-Benzyl-4-methyl-2-(2-oxo-4-(pyridin-2-ylmethoxy)pyridin-1(2H)-yl)thiazole-5-carboxamide]",202 to 205 °C
6,"CCNC(=O)c1sc(-n2ccc(O)cc2=O)cc1C [Example 7.9, N-Ethyl-5-(4-hydroxy-2-oxopyridin-1(2H)-yl)-3-methylthiophene-2-carboxamide]",183 to 184 °C
7,"Cc1nc(-n2ccc(Oc3ccccc3)cc2=O)sc1C(=O)NCc1ccccc1 [Example 18, N-Benzyl-4-methyl-2-(2-oxo-4-phenoxypyridin-1(2H)-yl)thiazole-5-carboxamide]",67 to 70 °C
8,"Cc1nc(-n2c(=O)ccc3cc(OCc4ccccc4)ccc32)sc1C(=O)NCc1ccccc1 [Example 3.9, N-Benzyl-2-(6-(benzyloxy)-2-oxoquinolin-1(2H)-yl)-4-methylthiazole-5-carboxamide]",213 to 216 °C
9,"Cc1nc(-n2ccc(OCc3ccccc3)cc2=O)sc1C(=O)NCc1ccc(F)cc1 [Example 3.12, 2-(4-(Benzyloxy)-2-oxopyridin-1(2H)-yl)-N-(4-fluorobenzyl)-4-methylthiazole-5-carboxamide]",223 to 225 °C
10,"Cc1c(C(=O)NCc2ccccc2)nc(-n2ccc(OCc3ccccc3)cc2=O)n1C [Example 1.10, N-Benzyl-2-(4-(benzyloxy)-2-oxopyridin-1(2H)-yl)-1,5-dimethyl-1H-imidazole-4-carboxamide]",190 to 191 °C
11,"COc1ccn(-c2nc(C)c(C(=O)NCc3ccc[n+]([O-])c3)s2)c(=O)c1 [Example 27, 3-((2-(4-methoxy-2-oxopyridin-1(2H)-yl)-4-methylthiazole-5-carboxamido)methyl)pyridine 1-oxide]",255 to 257 °C
12,Cc1nc(-n2ccc(OCc3ccc(C(F)(F)F)o3)cc2=O)sc1C(=O)O [Example 13.6],261 to 263 °C
13,"Cc1cc(-n2ccc(OCc3ccccc3)cc2=O)sc1C(=O)NCc1cccc(F)c1 [Example 3.22, 5-(4-(Benzyloxy)-2-oxopyridin-1(2H)-yl)-N-(3-fluorobenzyl)-3-methylthiophene-2-carboxamide]",140 to 141 °C
14,"Cc1cc(-n2ccc(OCCCO)cc2=O)sc1C(=O)NCc1cccc(F)c1 [Example 25, N-(3-Fluorobenzyl)-5-(4-(3-hydroxypropoxy)-2-oxopyridin-1(2H)-yl)-3-methylthiophene-2-carboxamide]",135 to 137 °C
15,"Cc1nc(-n2ccc(C3CC3)cc2=O)sc1C(=O)NCc1ccccc1 [Example 19.1, N-Benzyl-2-(4-cyclopropyl-2-oxopyridin-1(2H)-yl)-4-methylthiazole-5-carboxamide]",149 to 151 °C
16,"Cc1nc(-n2ccc(C(=O)Nc3ccccc3)cc2=O)sc1C(=O)NCc1ccccc1 [Example 3.13, N-Benzyl-4-methyl-2-(2-oxo-4-(phenylcarbamoyl)pyridin-1(2H)-yl)thiazole-5-carboxamide]",243 to 245 °C
17,Cc1nc(-n2ccc(OCc3ccc(C(F)(F)F)o3)cc2=O)sc1C(=O)NCc1ccccc1 [Example 9.7],214 to 216 °C
18,"Cc1cc(-n2ccc(OCCc3ccccc3)cc2=O)sc1C(=O)NCc1ccccc1 [Example 9.4, N-Benzyl-3-methyl-5-(2-oxo-4-phenethoxypyridin-1(2H)-yl)thiophene-2-carboxamide]",159 to 160 °C
19,"Cc1nc(-n2cc(Cl)ccc2=O)sc1C(=O)NCc1ccccc1 [Example 3.3, N-Benzyl-2-(5-chloro-2-oxopyridin-1(2H)-yl)-4-methylthiazole-5-carboxamide]",173 to 174 °C
20,"Cc1nc(-n2ccc(OCCC3CC3)cc2=O)sc1C(=O)NCc1ccccc1 [Example 1.3, N-Benzyl-2-(4-(2-cyclopropylethoxy)-2-oxopyridin-1(2H)-yl)-4-methylthiazole-5-carboxamide]",172 to 174 °C
